Experimental data taken from patent publication US6221865A, “Inhibitors of protein isoprenyl transferases” (priority 1998, dated 2001).
Where a name gives a salt, the structure may show the parent alone.

What follows are compounds tested against T1, protein farnesyltransferase (Rattus norvegicus, UniProt Q02293+Q04631) (assay: Inhibition of farnesyltransferase (scintillation proximity assay, rat brain enzyme, biotin-K Ras B fragment substrate)). Details: 1 × 10^-5 M (Table 1).
T1 construct: The enzyme is purified according to Reiss, Y., et al., Cell, 62: 81-88 (1990), utilizing steps one through three; from tissue; host or cells: rat brain
Assay type: biochemical
Text: The ability of the compounds of the invention to inhibit protein farnesyltransferase or protein geranylgeranyltransferase can be measured according to the method of Moores, et al., J. Biol. Chem. 266: 14603 (1991) or the method of Vogt, et al., J. Biol. Chem. 270:660-664 (1995). In addition, procedures for determination of the inhibition of farnesylation of the oncogene protein Ras are described by Goldstein, et al., J. Biol. Chem., 266:15575-15578 (1991) and by Singh in U.S. Pat. No. 5,245,061.
In addition, in vitro inhibition of protein farnesyltransferase may be measured by the following procedure. Rat brain protein farnesyltransferase activity is measured using an Amersham Life Science commercial scintillation proximity assay kit and substituting a biotin-K Ras B fragment (biotin-[…]Ble-Met-CO2 H), […] final concentration, for the biotin-lamin substrate provided by Amersham. The enzyme is purified according to Reiss, Y., et al., Cell, 62: 81-88 (1990), utilizing steps one through three.
The % inhibition of protein farnesyltransferase was determined for representative compounds of the invention.

T1 sequence (Q02293 whole entry, the tested form may be a part, one chain of several): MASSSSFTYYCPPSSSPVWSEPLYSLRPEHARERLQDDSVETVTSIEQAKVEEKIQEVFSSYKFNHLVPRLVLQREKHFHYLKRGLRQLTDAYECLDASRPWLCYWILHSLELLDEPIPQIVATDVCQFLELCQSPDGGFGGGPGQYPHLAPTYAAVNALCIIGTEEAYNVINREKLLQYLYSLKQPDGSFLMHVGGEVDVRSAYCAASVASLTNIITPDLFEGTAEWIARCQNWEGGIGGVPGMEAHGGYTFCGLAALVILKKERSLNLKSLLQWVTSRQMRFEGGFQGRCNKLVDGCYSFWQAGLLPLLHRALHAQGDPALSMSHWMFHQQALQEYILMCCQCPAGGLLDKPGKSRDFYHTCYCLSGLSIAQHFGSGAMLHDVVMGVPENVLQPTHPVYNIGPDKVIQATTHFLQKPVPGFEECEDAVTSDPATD

Row | SMILES | % inhibition of farnesyltransferase at 1 × 10^-5 M
1 | CSCC[C@H](NC(=O)c1ccc(CNc2ccc3ncccc3c2)cc1-c1ccccc1)C(=O)O [Example 708] | 76%
2 | CSCC[C@H](NC(=O)c1ccc(CNc2cccc(N(C)C)c2)cc1-c1ccccc1)C(=O)O [Example 683] | 57%
3 | COc1cc(I)c(C(=O)Nc2ccc(C(=O)N[C@@H](CCSC)C(=O)O)c(-c3ccccc3)c2)cc1OC [Example 756] | 47%

Same assay, conditions: 1 × 10^-6 M (Table 2)

Row | SMILES | % inhibition of farnesyltransferase at 1 × 10^-6 M
4 | CSCC[C@H](NC(=O)c1ccc(CN(CCO)c2ccccc2)cc1-c1ccccc1)C(=O)O [Example 505] | 72%
5 | CSCC[C@H](NC(=O)c1ccc(CNc2ccccc2C(N)=O)cc1-c1ccccc1)C(=O)O [Example 644] | 54%
6 | CSCC[C@H](NC(=O)c1ccc(CNc2ccc(-c3nc4ccccc4s3)cc2)cc1-c1ccccc1)C(=O)O [Example 703] | 40%
7 | CSCC[C@H](NC(=O)c1ccc(COCCCC2CCCCC2)cc1-c1ccccc1C)C(=O)O [Example 405] | 98%
8 | CSCC[C@H](NC(=O)c1ccc(COC2(c3ccccc3)CCN(C(=O)OC(C)(C)C)CC2)cc1-c1ccccc1C)C(=O)[O-].[Li+] [Example 816] | 87%
9 | CSCC[C@H](NC(=O)c1ccc(OCCC23CC4CC(CC(C4)C2)C3)cc1-c1ccccc1C)C(=O)O [Example 553] | 92%
10 | CSCC[C@H](NC(=O)c1ccc(CN(Cc2ccccc2)c2ccccc2C(C)=O)cc1-c1ccccc1C)C(=O)O [Example 844] | 92%
11 | CSCC[C@H](NC(=O)c1ccc(CNCc2ccccc2)cc1-c1ccccc1)C(=O)O.Cl [Example 936] | 69%
12 | CSCC[C@H](NC(=O)c1ccc(COCCCc2ccccc2)cc1-c1ccccc1C)C(=O)[O-].[Li+] [Example 595] | 97%
13 | CNCC(=O)Nc1ccc(C(=O)N[C@@H](CCSC)C(=O)O)c(-c2ccccc2)c1 [Example 749] | 84%
14 | CSCC[C@H](NC(=O)c1ccc(COCc2ccoc2)cc1-c1ccccc1C)C(=O)O [Example 530] | 94%

Same assay, conditions: 1 × 10^-7 M (Table 3)

Row | SMILES | % inhibition of farnesyltransferase at 1 × 10^-7 M
15 | C=C(C)C1CC=C(COCc2ccc(C(=O)N[C@@H](CCSC)C(=O)O)c(-c3ccccc3C)c2)CC1 (some centres unmarked) [Example 521] | 94%
16 | CCCC[C@H](CC1CCCCC1)NCc1ccc(C(=O)N[C@@H](CCSC)C(=O)O)c(-c2ccccc2C)c1 [Example 615] | 94%
17 | COc1ccc(-c2ccc(COCc3ccc(C(=O)N[C@@H](CCSC)C(=O)[O-])c(-c4ccccc4C)c3)o2)cc1.[Li+] [Example 446] | 91%
18 | CSCC[C@H](NC(=O)c1ccc(COCCc2ccc(-c3ccc(Cl)cc3)o2)cc1-c1ccccc1C)C(=O)[O-].[Li+] [Example 536] | 79%
19 | CCSC[C@H](CC1CCCCC1)N(Cc1ccc(C(=O)N[C@@H](CCSC)C(=O)O)c(-c2ccccc2C)c1)S(=O)(=O)c1ccccc1 [Example 951] | 71%
20 | CSCC[C@H](NC(=O)c1ccc(CN[C@H](/C=C\CC(C)C)CC2CCCCC2)cc1-c1ccccc1C)C(=O)O [Example 526] | 96%
21 | CSCC[C@H](NC(=O)c1ccc(COCc2cncs2)cc1-c1ccccc1C)C(=O)[O-].[Li+] [Example 539] | 89%
22 | CSCC[C@H](NC(=O)c1ccc(COCc2cnc(-c3ccc(Cl)cc3)o2)cc1-c1ccccc1C)C(=O)[O-].[Li+] [Example 894] | 89%

Same assay, conditions: 1 × 10^-8 M (Table 4)

Row | SMILES | % inhibition of farnesyltransferase at 1 × 10^-8 M
23 | CSCC[C@H](NC(=O)c1ccc(CSCc2ccccc2)cc1-c1ccccc1C)C(=O)NS(=O)(=O)c1ccc(C)cc1 [Example 586] | 90%
24 | CSCC[C@H](NC(=O)c1ccc(COC(Cc2ccccc2)c2cncs2)cc1-c1ccccc1C)C(=O)[O-].[Li+] (some centres unmarked) [Example 828] | 87%
25 | CSCC[C@H](NC(=O)c1ccc(CN(Cc2ccccc2)c2ccc(Cl)cc2)cc1-c1ccccc1C)C(=O)O [Example 848] | 87%
26 | CSCC[C@H](NC(=O)c1ccc(CN(CCC2CCCCC2)S(=O)(=O)c2ccccc2)cc1-c1ccccc1C)C(=O)O [Example 612] | 96%
27 | CCSC[C@H](CCc1ccccc1)NCc1ccc(C(=O)N[C@@H](CCSC)C(=O)O)c(-c2ccccc2C)c1 [Example 995] | 92%
28 | CSCC[C@H](NC(=O)c1ccc(CN(C)C(CC2CCCCC2)CC2CCCCC2)cc1-c1ccccc1C)C(=O)O [Example 907] | 79%

Same assay, conditions: Table 6, ** = 0.01 μM (footnote); title prints 0.01 mM

Row | SMILES | % inhibition at 0.01 μM (**)
29 | CSCC[C@H](NC(=O)c1ccc(CN(CCF)CCC2CCCCC2)cc1-c1ccccc1C)C(=O)O [Example 1094] | 96%

Same assay, conditions: read-out: % inhibition at 0.01 μM (**); Table 6, ** = 0.01 μM (footnote); title prints 0.01 mM

Row | SMILES | inhibition at 0.01 µM
30 | CSCC[C@H](NC(=O)c1ccc(Cc2nnnn2Cc2ccccc2)cc1-c1ccccc1C)C(=O)O [Example 1099, N-[4-(1-benzyltetrazol-5-ylmethyl)-2-(2-methylphenyl)benzoyl]methionine] | 87%

Same assay, conditions: read-out: % inhibition at 0.1 μM (*); Table 6, * = 0.1 μM (footnote); title prints 0.1 mM

Row | SMILES | inhibition at 0.1 µM
31 | CCCCP(=O)(CCCC)Cc1ccc(C(=O)N[C@@H](CCSC)C(=O)O)c(-c2ccccc2C)c1 [Example 1222, N-[4-(Dibutyl(oxophosphinyl)methyl)-2-(2-methylphenyl)benzoyl]methionine] | 89%

Same assay, conditions: read-out: % inhibition of farnesyltransferase at 1 × 10^-6 M; 1 × 10^-6 M (Table 2)

Row | SMILES | inhibition at 1 µM
32 | CSCC[C@H](NC(=O)c1ccc(CN(C(C)C)C2(Cc3ccccc3)CCC2)cc1-c1ccccc1C)C(=O)O [Example 331] | 98%
33 | CSCC[C@H](NC(=O)c1ccc(CN2CCN(C)CC2)cc1-c1ccccc1)C(=O)O [Example 289, [4-(4-methylpiperazinylmethyl)-2-phenylbenzoyl]methionine] | 23%
34 | CCCCN(C)N(CCC1CCCCC1)Cc1ccc(C(=O)N[C@@H](CCSC)C(=O)O)c(-c2ccccc2C)c1 [Example 299] | 94%
35 | CSCC[C@H](NC(=O)c1ccc(CN(C(C)C)C2(CC3CCCCC3)CC2)cc1-c1ccccc1C)C(=O)O [Example 326] | 91%
36 | CSCC[C@H](NC(=O)c1ccc(/C=C/c2cnc(Oc3ccccc3)cn2)cc1-c1ccccc1C)C(=O)O [Example 812, lithium salt] | 94%
37 | CSCC[C@H](NC(=O)c1ccc(CCCC(=O)c2ccc3ccccc3c2)cc1-c1ccccc1C)C(=O)O [Example 473, N-[4-(4-naphth-2-ylbut-4-on-1-yl)-2-(2-methylphenyl)benzoyl]methionine lithium salt] | 96%

Same assay, conditions: read-out: % inhibition of farnesyltransferase at 1 × 10^-7 M; 1 × 10^-7 M (Table 3)

Row | SMILES | inhibition at 0.1 µM
38 | CSCC[C@H](NC(=O)c1ccc(CN2CCC[C@@H]2COCc2ccccc2)cc1-c1ccccc1C)C(=O)O [Example 993, N-[4-(2-benzyloxymethylpyrrolidin-1-ylmethyl)-2-(2-methylphenyl)benzoyl]methionine] | 90%
